Experimental data from the NIST ThermoML archive (doi:10.1016/j.jct.2006.05.008).

Assay: molar heat capacity at constant pressure
Settings: 101.33 kPa

CCC[n+]1ccn(C)c1.[Br-] [1-methyl-3-propylimidazolium bromide]
Settings	molar heat capacity at constant pressure [J/K/mol]
79.74 K, Crystal, Vacuum adiabatic calorimetry	92.59
79.94 K, Crystal, Vacuum adiabatic calorimetry	92.76
81.02 K, Metastable crystal, Small (less than 1 g) adiabatic calorimetry	99.02
81.27 K, Crystal, Vacuum adiabatic calorimetry	93.84
81.34 K, Glass, Small (less than 1 g) adiabatic calorimetry	99.34
82.19 K, Crystal, Vacuum adiabatic calorimetry	94.55
82.6 K, Crystal, Vacuum adiabatic calorimetry	94.86
83.24 K, Metastable crystal, Small (less than 1 g) adiabatic calorimetry	100.47
83.87 K, Glass, Small (less than 1 g) adiabatic calorimetry	101.14
83.93 K, Crystal, Vacuum adiabatic calorimetry	95.59
84.2 K, Crystal, Vacuum adiabatic calorimetry	95.76
85.27 K, Crystal, Vacuum adiabatic calorimetry	96.54
85.49 K, Metastable crystal, Small (less than 1 g) adiabatic calorimetry	101.89
86.22 K, Crystal, Vacuum adiabatic calorimetry	97.26
86.42 K, Glass, Small (less than 1 g) adiabatic calorimetry	103.04
86.6 K, Crystal, Vacuum adiabatic calorimetry	97.57
87.75 K, Metastable crystal, Small (less than 1 g) adiabatic calorimetry	103.44
87.94 K, Crystal, Vacuum adiabatic calorimetry	98.49
88.23 K, Crystal, Vacuum adiabatic calorimetry	98.81
89 K, Glass, Small (less than 1 g) adiabatic calorimetry	105.01
89.27 K, Crystal, Vacuum adiabatic calorimetry	99.53
90.04 K, Metastable crystal, Small (less than 1 g) adiabatic calorimetry	104.98
90.61 K, Crystal, Vacuum adiabatic calorimetry	100.47
91.6 K, Glass, Small (less than 1 g) adiabatic calorimetry	106.89
91.95 K, Crystal, Vacuum adiabatic calorimetry	101.38
92.27 K, Crystal, Vacuum adiabatic calorimetry	101.66
92.34 K, Metastable crystal, Small (less than 1 g) adiabatic calorimetry	106.48
93.29 K, Crystal, Vacuum adiabatic calorimetry	102.41
94.22 K, Glass, Small (less than 1 g) adiabatic calorimetry	108.72
94.29 K, Crystal, Vacuum adiabatic calorimetry	103.09
94.64 K, Crystal, Vacuum adiabatic calorimetry	103.36
94.66 K, Metastable crystal, Small (less than 1 g) adiabatic calorimetry	107.94
95.98 K, Crystal, Vacuum adiabatic calorimetry	104.28
96.31 K, Crystal, Vacuum adiabatic calorimetry	104.51
96.86 K, Glass, Small (less than 1 g) adiabatic calorimetry	110.58
97 K, Metastable crystal, Small (less than 1 g) adiabatic calorimetry	109.41
97.33 K, Crystal, Vacuum adiabatic calorimetry	105.24
98.33 K, Crystal, Vacuum adiabatic calorimetry	105.88
98.67 K, Crystal, Vacuum adiabatic calorimetry	106.05
99.35 K, Metastable crystal, Small (less than 1 g) adiabatic calorimetry	110.84
99.51 K, Glass, Small (less than 1 g) adiabatic calorimetry	112.37
100.03 K, Crystal, Vacuum adiabatic calorimetry	106.92
100.36 K, Crystal, Vacuum adiabatic calorimetry	107.18
101.38 K, Crystal, Vacuum adiabatic calorimetry	107.81
101.71 K, Metastable crystal, Small (less than 1 g) adiabatic calorimetry	112.27
102.18 K, Glass, Small (less than 1 g) adiabatic calorimetry	114.14
102.39 K, Crystal, Vacuum adiabatic calorimetry	108.44
102.74 K, Crystal, Vacuum adiabatic calorimetry	108.69
104.09 K, Crystal, Vacuum adiabatic calorimetry	109.46
104.09 K, Metastable crystal, Small (less than 1 g) adiabatic calorimetry	113.67
104.42 K, Crystal, Vacuum adiabatic calorimetry	109.77
104.87 K, Glass, Small (less than 1 g) adiabatic calorimetry	115.91
105.45 K, Crystal, Vacuum adiabatic calorimetry	110.36
106.45 K, Crystal, Vacuum adiabatic calorimetry	111.06
106.47 K, Metastable crystal, Small (less than 1 g) adiabatic calorimetry	115.09
106.81 K, Crystal, Vacuum adiabatic calorimetry	111.31
107.56 K, Glass, Small (less than 1 g) adiabatic calorimetry	117.68
108.17 K, Crystal, Vacuum adiabatic calorimetry	112.14
108.48 K, Crystal, Vacuum adiabatic calorimetry	112.42
108.88 K, Metastable crystal, Small (less than 1 g) adiabatic calorimetry	116.5
109.53 K, Crystal, Vacuum adiabatic calorimetry	112.92
110.28 K, Glass, Small (less than 1 g) adiabatic calorimetry	119.33
110.52 K, Crystal, Vacuum adiabatic calorimetry	113.6
110.89 K, Crystal, Vacuum adiabatic calorimetry	113.71
111.29 K, Metastable crystal, Small (less than 1 g) adiabatic calorimetry	117.82
112.25 K, Crystal, Vacuum adiabatic calorimetry	114.5
112.57 K, Crystal, Vacuum adiabatic calorimetry	114.76
113 K, Glass, Small (less than 1 g) adiabatic calorimetry	121
113.61 K, Crystal, Vacuum adiabatic calorimetry	115.32
113.71 K, Metastable crystal, Small (less than 1 g) adiabatic calorimetry	119.15
114.61 K, Crystal, Vacuum adiabatic calorimetry	115.9
114.97 K, Crystal, Vacuum adiabatic calorimetry	116.19
115.74 K, Glass, Small (less than 1 g) adiabatic calorimetry	122.66
116.15 K, Metastable crystal, Small (less than 1 g) adiabatic calorimetry	120.5
116.34 K, Crystal, Vacuum adiabatic calorimetry	116.93
116.65 K, Crystal, Vacuum adiabatic calorimetry	117.03
117.71 K, Crystal, Vacuum adiabatic calorimetry	117.69
118.48 K, Glass, Small (less than 1 g) adiabatic calorimetry	124.31
118.59 K, Metastable crystal, Small (less than 1 g) adiabatic calorimetry	121.83
118.69 K, Crystal, Vacuum adiabatic calorimetry	118.24
119.07 K, Crystal, Vacuum adiabatic calorimetry	118.47
120.44 K, Crystal, Vacuum adiabatic calorimetry	119.22
120.73 K, Crystal, Vacuum adiabatic calorimetry	119.36
121.04 K, Metastable crystal, Small (less than 1 g) adiabatic calorimetry	123.15
121.24 K, Glass, Small (less than 1 g) adiabatic calorimetry	125.94
121.82 K, Crystal, Vacuum adiabatic calorimetry	120.01
122.78 K, Crystal, Vacuum adiabatic calorimetry	120.51
123.19 K, Crystal, Vacuum adiabatic calorimetry	120.74
123.49 K, Metastable crystal, Small (less than 1 g) adiabatic calorimetry	124.47
124.01 K, Glass, Small (less than 1 g) adiabatic calorimetry	127.58
124.56 K, Crystal, Vacuum adiabatic calorimetry	121.49
124.82 K, Crystal, Vacuum adiabatic calorimetry	121.64
125.93 K, Crystal, Vacuum adiabatic calorimetry	122.24
125.95 K, Metastable crystal, Small (less than 1 g) adiabatic calorimetry	125.81
126.78 K, Glass, Small (less than 1 g) adiabatic calorimetry	129.18
126.87 K, Crystal, Vacuum adiabatic calorimetry	122.8
127.3 K, Crystal, Vacuum adiabatic calorimetry	122.93
128.42 K, Metastable crystal, Small (less than 1 g) adiabatic calorimetry	127.1
128.67 K, Crystal, Vacuum adiabatic calorimetry	123.68
128.92 K, Crystal, Vacuum adiabatic calorimetry	123.91
129.56 K, Glass, Small (less than 1 g) adiabatic calorimetry	130.84
130.04 K, Crystal, Vacuum adiabatic calorimetry	124.38
130.89 K, Metastable crystal, Small (less than 1 g) adiabatic calorimetry	128.38
130.97 K, Crystal, Vacuum adiabatic calorimetry	125.11
131.41 K, Crystal, Vacuum adiabatic calorimetry	125.15
132.34 K, Glass, Small (less than 1 g) adiabatic calorimetry	132.48
132.79 K, Crystal, Vacuum adiabatic calorimetry	125.91
133.03 K, Crystal, Vacuum adiabatic calorimetry	126.19
133.37 K, Metastable crystal, Small (less than 1 g) adiabatic calorimetry	129.68
134.16 K, Crystal, Vacuum adiabatic calorimetry	126.6
135.08 K, Crystal, Vacuum adiabatic calorimetry	127.08
135.13 K, Glass, Small (less than 1 g) adiabatic calorimetry	134.09
135.53 K, Crystal, Vacuum adiabatic calorimetry	127.32
135.85 K, Metastable crystal, Small (less than 1 g) adiabatic calorimetry	130.98
136.16 K, Crystal, Vacuum adiabatic calorimetry	127.66
136.91 K, Crystal, Vacuum adiabatic calorimetry	128.04
137.14 K, Crystal, Vacuum adiabatic calorimetry	128.2
137.92 K, Glass, Small (less than 1 g) adiabatic calorimetry	135.74
138.28 K, Crystal, Vacuum adiabatic calorimetry	128.82
138.34 K, Metastable crystal, Small (less than 1 g) adiabatic calorimetry	132.27
138.66 K, Crystal, Vacuum adiabatic calorimetry	129
139.66 K, Crystal, Vacuum adiabatic calorimetry	129.53
140.72 K, Crystal, Vacuum adiabatic calorimetry	130.08
140.72 K, Glass, Small (less than 1 g) adiabatic calorimetry	137.41
140.83 K, Metastable crystal, Small (less than 1 g) adiabatic calorimetry	133.54
141.03 K, Crystal, Vacuum adiabatic calorimetry	130.25
142.4 K, Crystal, Vacuum adiabatic calorimetry	130.91
142.78 K, Crystal, Vacuum adiabatic calorimetry	131.16
143.33 K, Metastable crystal, Small (less than 1 g) adiabatic calorimetry	134.81
143.52 K, Glass, Small (less than 1 g) adiabatic calorimetry	139.08
143.79 K, Crystal, Vacuum adiabatic calorimetry	131.72
144.84 K, Crystal, Vacuum adiabatic calorimetry	132.23
145.17 K, Crystal, Vacuum adiabatic calorimetry	132.41
145.82 K, Metastable crystal, Small (less than 1 g) adiabatic calorimetry	136.13
